Laboratory results: US5968581A, “Dipeptide derivatives and sweetening agents” (Ajinomoto Co., Inc., priority 1997, dated 1999)
Like-named read-outs stand apart in the source and are kept apart here. Residues, ends and D or L forms follow the SMILES beside them.

Legend:
[1] = Stability (half-life) in acidic aqueous solution, pH 3 phosphate buffer at 70° C.
[2] = Sensory evaluation: degree of sweetness relative to sucrose; details: times that of 4% sucrose solution
[3] = pH 3

Row | Structure (SMILES) | Stability (half-life, time corresponding to 50% degradation) [1] | Stability (half-life, time corresponding to 50% degradation) ([1]; listed as N-3,3-dimethylbutyl-α-L-aspartyl-α-methyl-L-tyrosine methyl. ester) | Degree of sweetness (relative to sugar) [2] | Degree of sweetness (relative to sugar) ([2]; listed as N-3,3-dimethylbutyl-α-L-aspartyl-α-methyl-L-tyrosine methyl ester) | Stability (half-life, time corresponding to 50% degradation) [3]
1 | COC(=O)[C@](C)(Cc1ccc(O)cc1)NC(=O)[C@H](CC(=O)O)NCCC(C)(C)C [Example 2, N-3,3-dimethylbutyl-α-L-aspartyl-α-methyl-L-tyrosine methyl ester] | 14.5 days | about 347 hours | 700 times | about 700 times | 
2 | COC(=O)[C@H](Cc1ccccc1)NC(=O)[C@@H](N)CC(=O)O [aspartame] (H-Asp-Phe-OMe) |  |  |  |  | about 24 hours
